# Assay results from US20240238278A1, “Pharmaceutical Composition for Preventing or Treating Fibrosis” (Daewoong Pharmaceutical Co., Ltd., priority 2021, published 2024).
# Key:
# [1] = Human pharmacokinetics, single administration; format: in vivo; settings: for CL/F / Cmax / MRT / T1/2 / tmax (median) / AUC(0-inf) / AUC(0-t) / Tmax: healthy adults, empty stomach; for Tmax: read-out: tmax (median)
# Procedure: (§1) The formulation used in the clinical trial was prepared in the same manner as in Preparation Examples 1 and 2.
# [2] = Human pharmacokinetics, multiple administration (Day 14); format: in vivo; settings: for Accumulation ratio based on AUCτ / CL/Fss / Cmax, ss / MRT / T1/2 / Vz/Fss / tmax, ss (median) / AUCτ / AUC(0-inf): healthy adults; for Accumulation ratio based on AUCτ / CL/Fss / Cmax, ss / MRT / T1/2 / Vz/Fss / tmax, ss (median) / AUC(0-inf): Day 14; for AUCτ: Day 14, 12 hour dosing interval
# Procedure: as §1
# [3] = Pharmacokinetic model prediction of exposure in humans at various oral doses; design: species or system human; settings: model-predicted
# From the text: Therefore, the optimal pharmacokinetic model parameters that can explain the changes in concentrations at all doses observed using Excel® and WinNonlin8.1 software were estimated for the blood drug concentration obtained in the human multidose clinical trial.
# [4] = Safety/tolerance in healthy adults clinical trial; format: in vivo, human; settings: 72 healthy adults, single (100-600 mg) and multiple (25-200 mg twice a day, 14 days) administration
# Procedure: as §1
# [5] = test system: DHLF cell line; assay: Non-clinical anti-fibrotic efficacy: Western blotting of TGF-β treated DHLF cell line; format: cell-based; settings: TGF-β 10 ng/ml, 72 hours
# Procedure: 10 mM of the first component was diluted with DMSO so as to be to 100 uM. It was diluted with DMSO so as to be 10, 3, 1 uM, and 10 mM of the second component (NIN) was diluted with DMSO to be 50 nM.
# A DHLF cell line (FGM™-2 Bullet Kit™, 10% FBS), which is a lung fibrosis cell line, was prepared, and cultured in a T75 Easy Flask Filter at 37° C. and 5% CO2 using FBM medium. The cultured DHLF cell line was treated with 10 ng/mL of TGF-β and the test drug alone or in combination, cultured for 72 hours, then the media was removed, the protein was extracted, and the extracted protein was quantified using the BCA Protein Assay Kit. Based on the quantitative value of each extracted protein, 10 to 20 ug of protein was subjected to Western blotting. The protein after running was transferred to the PVDF membrane. After TBS-T washing 3 times, each PVDF membrane was treated with 1 mL of ECL solution, and then the protein expression level was measured using an AI680 imager. Each band value was calculated as a numerical value normalized compared to β-actin through ImageJ, and is shown in Tables 2 and 3 and FIGS. 1 and 2 below.
# [6] = test system: animal model of pulmonary fibrosis; assay: Lung function evaluation (SpO2) in BLM animal model; format: in vivo, mouse; settings: BLM mice, PO, day 21, first component 10 mg/kg, NIN 60 mg/kg, PID 200 mg/kg
# Procedure: (§2) 70-100 uL of BLM solution (bleomycin 1-3 mg/kg) was administered to a lung of the acclimatized experimental animals using a catheter for 5 days or more. In accordance with the purpose of the test, the test drug was administered 7 days after BLM administration, and the drug was orally administered for 2 weeks until the 21st day of BLM administration.
# This lung function evaluation is the most direct and important evaluation index that has the greatest influence on the symptoms and quality of life of patients with pulmonary fibrosis, and is an experiment that can most directly show the effect of improving lung function in an animal model of pulmonary fibrosis by measuring the oxygen concentration in the body.
# On the 21st day, it was measured with a SpO2 measuring device (Berry, Veterinary Pulse Oximeter) via the abdominal side of the mouse, and the results are shown in Table 5 and FIG. 3.
# [7] = test system: animal model of pulmonary fibrosis; assay: Measurement of total collagen content in lung (INSOLUBLE Collagen Assay); format: in vivo, mouse; settings: BLM mice, PO, day 21, n 9; first component 10 mg/kg, NIN 60 mg/kg, PID 200 mg/kg
# Procedure: as §2
# In this experimental example, analysis was performed using INSOLUBLE Collagen Assay (Biocolor, S2000). After sacrifice on the 21st day, the cryopreserved lung tissue was pulverized by adding 100 uL of Fragmentation Reagent, and then, 100 uL of 37% HCl was added and incubated at 65° C. for 3 hours. The contents of the tube were shaken at 30 minute intervals to aid tissue disintegration. After centrifugation, the concentration was adjusted to 100 μL and collagen staining was proceeded to prepare a sample. Absorbance was measured at 560 nm.
# [8] = test system: animal model of pulmonary fibrosis; assay: Inflammation cell count analysis in BALF; format: in vivo; settings: BLM mice, PO, day 21; first component 10 mg/kg, NIN 60 mg/kg, PID 200 mg/kg
# Procedure: as §2
# At the sacrifice on the 21st day of administration, BALF (Bronchoalveolar lavage fluid) cells obtained through airway washing of mice were diluted with 1.05×PBS and attached to a slide, and then the slide was immersed and removed for 30 seconds in the order of 1, 2, 3 diff quick stain solution, and stained. It was counted based on 500 cells. Macrophages are the largest in size, mononuclear, and stained blue. Neutrophils and eosinophils form polynuclear cells, but eosinophils are stained red with eosin and distinguished from neutrophils. Lymphocytes have very less cytoplasm and are small in size as monocytes.
# [9] = Measurement of change in body weight in BLM animal model; format: in vivo, mouse; design: unit not given here; settings: BLM mice, first component 10 mg/kg, NIN 60 mg/kg, PID 200 mg/kg
# Procedure: as §2
# The body weight was measured once every 0, 7, 14, 17, and 21 days for 3 weeks, and from the 14th day when the drug effect began to be noticeable after the administration, it was measured every 3 days.
# [10] = Drug interaction clinical trial, combined administration; format: in vivo, human; settings: Part 2, healthy adults; first component 150 mg enteric tablet
# Procedure: To evaluate the drug interaction during the combined administration of the first component and the second component, a clinical trial was conducted on a total of 48 healthy adults, divided into two groups of 24 each for Part 1 and Part 2. The clinical trial was designed by a fixed sequence, three-phase, and one 150 mg enteric tablet of the first component was orally administered.
# Subjects enrolled in Part 1 were sequentially given a single dose of 600 mg of the second component (PID) in the phase 1, a single dose of 150 mg of the first component in the phase 2. After that, washout progressed on the 3rd day, and 150 mg of the first component was administered multiple times for 3 days, and in the final phase 3, a single dose of the first component and the second components (NIN) was administered in combination.
# [11] = single oral 100 mg, enteric coated capsules
# [12] = single oral 300 mg, enteric coated capsules
# [13] = single oral 500 mg, enteric coated tablet
# [14] = single oral 600 mg, enteric coated capsules
# [15] = human, plasma, single oral 100 mg, enteric coated capsules
# [16] = human, plasma, single oral 300 mg, enteric coated capsules
# [17] = human, plasma, single oral 500 mg, enteric coated tablet
# [18] = human, plasma, single oral 600 mg, enteric coated capsules
# [19] = Table 2, second component (NIN) 50 ng/ml alone
# [20] = Table 3, second component (NIN) 100 ng/ml alone
compound,measurement,setting,value
O[C@H]1CCCN[C@@H]1CCCn1cnc2c(Cl)c(Cl)ccc21 [Active component],CL/F,[1]; [11],156.48 L/h
same,Cmax,[1]; [11],123.96 ng/mL
same,MRT,[1]; [11],9.26 h
same,T1/2,[1]; [11],6.91 h
same,CL/F,[1]; [12],196.59 L/h
same,Cmax,[1]; [12],276.80 ng/mL
same,MRT,[1]; [12],9.75 h
same,T1/2,[1]; [12],8.33 h
same,tmax (median),[1]; [12],2.50 h
same,CL/F,[1]; [13],213.75 L/h
same,Cmax,[1]; [13],513.56 ng/mL
same,MRT,[1]; [13],9.57 h
same,T1/2,[1]; [13],7.80 h
same,tmax (median),[1]; [13],3.01 h
same,CL/F,[1]; [14],312.07 L/h
same,Cmax,[1]; [14],213.43 ng/mL
same,MRT,[1]; [14],9.79 h
same,T1/2,[1]; [14],9.90 h
same,half-life,"[1]; human, plasma, oral, single administration, across 100-600 mg doses, read-out: geometric mean half-life",6.91 to 9.9 h
same,AUC(0-inf),[1]; [15],639 ng·h/mL
same,AUC(0-t),[1]; [15],594 ng·h/mL
same,Tmax,[1]; [15],3 h
same,AUC(0-inf),[1]; [16],1530 ng·h/mL
same,AUC(0-t),[1]; [16],1480 ng·h/mL
same,AUC(0-inf),[1]; [17],2340 ng·h/mL
same,AUC(0-t),[1]; [17],2280 ng·h/mL
same,AUC(0-inf),[1]; [18],1920 ng·h/mL
same,AUC(0-t),[1]; [18],1010 ng·h/mL
same,Tmax,[1]; [18],2 h
same,relationship of plasma concentrations to dose,[1]; single administration,dose proportional relationship
same,Accumulation ratio based on AUCτ,[2]; 25 mg tablet twice a day,1.94
same,CL/Fss,[2]; 25 mg tablet twice a day,122.65 L/h
same,"Cmax, ss",[2]; 25 mg tablet twice a day,36.50 ng/mL
same,MRT,[2]; 25 mg tablet twice a day,10.53 h
same,T1/2,[2]; 25 mg tablet twice a day,7.63 h
same,Vz/Fss,[2]; 25 mg tablet twice a day,1433.79 L
same,"tmax, ss (median)",[2]; 25 mg tablet twice a day,2.00 h
same,AUCτ,[2]; 25 mg tablet twice a day,183.32 ng·h/mL
same,Accumulation ratio based on AUCτ,[2]; 50 mg tablet twice a day,2.33
same,CL/Fss,[2]; 50 mg tablet twice a day,116.53 L/h
same,"Cmax, ss",[2]; 50 mg tablet twice a day,102.61 ng/mL
same,MRT,[2]; 50 mg tablet twice a day,8.44 h
same,T1/2,[2]; 50 mg tablet twice a day,4.40 h
same,Vz/Fss,[2]; 50 mg tablet twice a day,738.97 L
same,AUCτ,[2]; 50 mg tablet twice a day,429.09 ng·h/mL
same,Accumulation ratio based on AUCτ,[2]; 100 mg tablet twice a day,1.88
same,CL/Fss,[2]; 100 mg tablet twice a day,161.97 L/h
same,"Cmax, ss",[2]; 100 mg tablet twice a day,151.27 ng/mL
same,MRT,[2]; 100 mg tablet twice a day,10.17 h
same,T1/2,[2]; 100 mg tablet twice a day,9.26 h
same,Vz/Fss,[2]; 100 mg tablet twice a day,2163.04 L
same,"tmax, ss (median)",[2]; 100 mg tablet twice a day,3.00 h
same,AUCτ,[2]; 100 mg tablet twice a day,617.40 ng·h/mL
same,Accumulation ratio based on AUCτ,[2]; 200 mg tablet twice a day,3.75
same,CL/Fss,[2]; 200 mg tablet twice a day,66.39 L/h
same,"Cmax, ss",[2]; 200 mg tablet twice a day,595.35 ng/mL
same,MRT,[2]; 200 mg tablet twice a day,12.07 h
same,T1/2,[2]; 200 mg tablet twice a day,12.35 h
same,Vz/Fss,[2]; 200 mg tablet twice a day,1182.53 L
same,AUCτ,[2]; 200 mg tablet twice a day,3012.35 ng·h/mL
same,AUC(0-inf),"[2]; human, plasma, oral, 25 mg tablet twice a day",301 ng·h/mL
same,AUC(0-inf),"[2]; human, plasma, oral, 50 mg tablet twice a day",565 ng·h/mL
same,AUC(0-inf),"[2]; human, plasma, oral, 100 mg tablet twice a day",888 ng·h/mL
same,AUC(0-inf),"[2]; human, plasma, oral, 200 mg tablet twice a day",4750 ng·h/mL
same,AUC,"[2]; human, plasma, oral, multiple administration, 14th day, across 25-200 mg, read-out: geometric mean dose interval in vivo exposure (AUCτ)",183 to 3010 ng·h/mL
same,half-life,"[2]; human, plasma, oral, multiple administration, 14th day, across 25-200 mg, read-out: geometric mean half-life",4.4 to 12.3 h
same,relationship of plasma concentrations to dose,"[2]; multiple administration, dose range of 25 mg to 200 mg",dose linear relationship
same,AUCtau,[3]; oral Dose 50 mg,231.6352 ng·h/mL
same,AUCtau—24 hr,[3]; oral Dose 50 mg,463.2704 ng·h/mL
same,CL/F,[3]; oral Dose 50 mg,215856.7 mL/h
same,Cmax,[3]; oral Dose 50 mg,38.271 ng/mL
same,T1/2,[3]; oral Dose 50 mg,9.753 h
same,Tmax,[3]; oral Dose 50 mg,2.803 h
same,AUCtau,[3]; oral Dose 100 mg,463.2704 ng·h/mL
same,AUCtau—24 hr,[3]; oral Dose 100 mg,926.5407 ng·h/mL
same,CL/F,[3]; oral Dose 100 mg,215856.7 mL/h
same,Cmax,[3]; oral Dose 100 mg,76.5419 ng/mL
same,T1/2,[3]; oral Dose 100 mg,9.753 h
same,Tmax,[3]; oral Dose 100 mg,2.803 h
same,AUCtau,[3]; oral Dose 150 mg,694.9055 ng·h/mL
same,AUCtau—24 hr,[3]; oral Dose 150 mg,1389.811 ng·h/mL
same,CL/F,[3]; oral Dose 150 mg,215856.7 mL/h
same,Cmax,[3]; oral Dose 150 mg,114.813 ng/mL
same,T1/2,[3]; oral Dose 150 mg,9.753 h
same,Tmax,[3]; oral Dose 150 mg,2.803 h
same,AUCtau,[3]; oral Dose 200 mg,926.5413 ng·h/mL
same,AUCtau—24 hr,[3]; oral Dose 200 mg,1853 ng·h/mL
same,CL/F,[3]; oral Dose 200 mg,215856.5 mL/h
same,Cmax,[3]; oral Dose 200 mg,153.084 ng/mL
same,T1/2,[3]; oral Dose 200 mg,9.753 h
same,Tmax,[3]; oral Dose 200 mg,2.803 h
same,serious abnormal signs or side effects,[4],no serious abnormal signs or side effects
"COC(=O)c1ccc2c(c1)NC(=O)/C2=C(\Nc1ccc(N(C)C(=O)CN2CCN(C)CC2)cc1)c1ccccc1 [Second component (NIN), Nintedanib]",COL1A1 Relative value (based on control),[5]; [19],4.60
same,SMA-α Relative value (based on control),[5]; [19],2.63
same,COL1A1 Relative value (based on control),[5]; [20],2.81
same,SMA-α Relative value (based on control),[5]; [20],2.99
same,SpO2 Average value,[6],79.8
same,SpO2 Differance,[6]; vs vehicle,3.8
same,SpO2 Rate of increase,[6]; vs vehicle,5%
same,"total collagen content in lung (hydroxyproline value, ratio compared with normal group)",[7],192
same,Eosinophil count in BALF,[8],0
same,Lymphocyte count in BALF,[8],5
same,Macrophage count in BALF,[8],53
same,Neutrophil count in BALF,[8],10
same,total cell in BALF,[8],69 10^4
same,change in body weight,[9]; Day 0,0.0
same,change in body weight,[9]; Day 7,−10.1
same,change in body weight,[9]; Day 14,−22.6
same,change in body weight,[9]; Day 17,−20.0
same,change in body weight,[9]; Day 21,−18.2
same,drug interaction when administered in combination with the first component vs alone,[10],no clinically significant drug interaction
